The text below walks through data of US20150177228A1, “DEVICE AND METHOD FOR SCREENING FOR BIOACTIVE MATERIALS USING VISUAL RECOGNITION OF ANIMALS” (GENOMIC DESIGN BIOENGINEERING COMPANY, priority 2012, published 2015).

The assay has as its system zebrafish 4 days post fertilization. Briefly: Zebrafish colour preference (visual perception response) test in water tank with blue and yellow passage portions. The following applies: as the alcohol concentration of the medium increased (0%, 0.5%, 1%, 2%); 10 zebrafish, 30-minute intervals, FIG. 5.

Source text: 5) The image stored in each of the first to fifth image files was read at 2-minute intervals to count the number of zebrafish in the first passage portion 112 fitted with the first fitting body 120 (preferred color) or the second passage portion 113 fitted with the second fitting body 130 (dislike color).

For the molecule `CCO` [alcohol], the “visual perception response of the zebrafish (distribution between first passage portion, preferred color, and second passage portion, dislike color)” value is “scattered in both the first passage portion 112 and the second passage portion 113”.
